Structures are written as SMILES. Where a name gives a salt, the structure may show the parent alone. Where only a bound is given, the exact number is not on record here.

T1 sequence (P14842 whole entry): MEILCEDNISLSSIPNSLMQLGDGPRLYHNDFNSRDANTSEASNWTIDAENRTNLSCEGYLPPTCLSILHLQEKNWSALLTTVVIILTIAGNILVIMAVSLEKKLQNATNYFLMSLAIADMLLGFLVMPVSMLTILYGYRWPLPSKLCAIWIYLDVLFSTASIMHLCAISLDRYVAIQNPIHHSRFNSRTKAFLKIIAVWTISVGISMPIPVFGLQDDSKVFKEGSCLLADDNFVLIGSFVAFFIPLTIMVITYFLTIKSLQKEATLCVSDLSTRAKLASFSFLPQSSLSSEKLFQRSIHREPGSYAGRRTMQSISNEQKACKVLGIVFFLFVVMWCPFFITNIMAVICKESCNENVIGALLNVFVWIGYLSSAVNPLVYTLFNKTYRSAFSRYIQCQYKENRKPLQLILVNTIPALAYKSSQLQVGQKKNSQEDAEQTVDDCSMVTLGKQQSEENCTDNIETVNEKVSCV

The target of the first test is 5-HT1 receptor. As to the kind of experiment: Interaction with serotonin receptors: 5-HT1 receptor, calf hippocampus, ligand 3H-serotonin. Format: binding. Conditions: ligand 3H-serotonin (Table 2), read-out: K1. As for the experimental part:
(§1) Interaction with serotonin receptors
(§2) Inhibition constant K1 (nmol l^-1)
Ligand: ^3 H--serotonin
In generally similar manner there were prepared additional compounds which, when tested against 5-HT, receptors as in Example 7, gave the results shown in Table 2.
On to `C[C@@H]1CCC[C@H](C)N1CCc1c[nH]c2ccc(CN)cc12` [compound 35], for which the Ki turned out to be 500 nM. On the same count and under the same terms, in the case of `COc1ccc2[nH]cc(CCN3[C@@H](C)CCC[C@@H]3C)c2c1` (relative stereo) [compound 22] it was 45 nM; in that of `CC1CC(C)N(CCc2c[nH]c3ccccc23)C(C)C1` (centres unmarked) [compound 26], 920 nM. Still for that read-out and setting: in the case of `C[C@@H]1CCC[C@H](C)N1CCc1c[nH]c2ccccc12` [compound 19] it was 800 nM; in that of `Cc1ccc(S(=O)(=O)n2cc(CCN3[C@H](C)CCC[C@@H]3C)c3cc(Br)ccc32)cc1` [compound 31], 3200 nM; in that of `C[C@@H]1CCC[C@H](C)N1CCc1cn(C(=O)OC(C)(C)C)c2ccccc12` [compound 30], 1800 nM. Turning to `C[C@H]1CCC[C@H](C)N1CCc1c[nH]c2ccc(OCc3ccccc3)cc12` (relative stereo) [compound 15], the Ki worked out at 500 nM. Still for that read-out and setting: in the case of `C[C@@H]1CCC[C@H](C)N1CCc1c[nH]c2ccc(F)cc12` [compound 24] it was 170 nM; in that of `C[C@@H]1CCC[C@H](C)N1CCc1c[nH]c2ccc(Cl)cc12` [compound 23], 60 nM.

On to `C[C@H]1CCC[C@H](C)N1CCc1c[nH]c2ccc(O)cc12` (relative stereo) [compound 17], for which the Ki stood at 25 nM. On the same count and under the same terms, the same measure for `CC1CCCCN1CCc1c[nH]c2ccccc12` (centres unmarked) [compound 25]: 170 nM. The same measure, in the same setting: the same measure for `C[C@@H]1CCC[C@H](C)N1CCc1c[nH]c2ccc(O)cc12` [compound 16]: 4 nM; for `C[C@H]1CCC[C@H](C)N1CCc1c[nH]c2ccccc12` (relative stereo) [compound 29]: 3000 nM. Still for that read-out and setting: in the case of `C[C@@H]1CCC[C@H](C)N1CCc1c[nH]c2ccc(C#N)cc12` [compound 28] it was 240 nM; in that of `C[C@@H]1CCC[C@H](C)N1CCc1c[nH]c2ccc(C(N)=O)cc12` [compound 37], 7 nM; in that of `C[C@@H]1CCC[C@H](C)N1CCc1cn(C(N)=O)c2ccccc12` [compound 13], 1800 nM. Regarding `CC1CC(C)N(CCc2c[nH]c3ccc(Cl)cc23)C(C)C1` (centres unmarked) [compound 38], the Ki turned out to be 660 nM. On the same count and under the same terms, the same measure for `C[C@@H]1CCC[C@H](C)N1CCc1c[nH]c2ccc(OCc3ccccc3)cc12` [compound 11]: 200 nM; for `COc1ccc2[nH]cc(CCN3[C@H](C)CCC[C@@H]3C)c2c1` [compound 9]: 13 nM. Same read-out and setting: in the case of `C[C@@H]1CCC[C@H](C)N1CCc1c[nH]c2ccc(Br)cc12` [compound 18] it was 30 nM; in that of `CC1(C)CCCC(C)(C)N1CCc1c[nH]c2ccccc12` [compound 39], over 10000 nM; in that of `C[C@@H]1CCC[C@H](C)N1CCc1c[nH]c2ccc(OCc3ccccc3)cc12` [compound 14], 800 nM.

In the case of `COc1ccc2[nH]cc(CCN3[C@@H](C)CCC[C@@H]3C)c2c1` (relative stereo) [compound 20], the Ki was 450 nM. On the same count and under the same terms, the same measure for `C[C@@H]1CCC[C@H](C)N1CCc1c[nH]c2ccc(O)cc12` [compound 12]: 15 nM. On the same count and under the same terms, in the case of `C[C@@H]1CCC[C@H](C)N1CCc1c[nH]c2ccc(-n3cc(CCN4[C@H](C)CCC[C@@H]4C)c4cc(Br)ccc43)cc12` [compound 32] it was 680 nM. As for `C[C@@H]1CCC[C@H](C)N1CCc1cn(C)c2ccc(Br)cc12` [compound 34], the Ki stood at 1100 nM. Take `Cc1ccc2[nH]cc(CCN3[C@H](C)CCC[C@@H]3C)c2c1` [compound 27]: the Ki was 40 nM. On the same count and under the same terms, in the case of `COc1ccc2[nH]cc(CCN3[C@H](C)CCC[C@@H]3C)c2c1` [compound 10] it was 10 nM; in that of `COc1ccc2[nH]cc(CCN3[C@H](C)CCC[C@@H]3C)c2c1` [compound 21], 70 nM. Same read-out and setting: the same measure for `C[C@@H]1CCC[C@H](C)N1CCc1cn(C(=O)c2ccccc2)c2ccc(Br)cc12` [compound 36]: 1000 nM.

The next test addresses T1, 5-HT2 receptor (Rattus norvegicus, UniProt P14842).
T1 construct: rat prefrontal cortex; from tissue; host or cells: rat prefrontal cortex
As to the kind of experiment: Interaction with serotonin receptors: 5-HT2 receptor, rat prefrontal cortex, ligand 3H-ketanserin. It is filed as binding.
Conditions: not given
Source text: as §1, §2
5-HT2 receptor Contraction of the
Ligand: ^3 H--ketanserin
`C[C@@H]1CCC[C@H](C)N1CCc1c[nH]c2ccc(Br)cc12` [Example 3, 3-[2-(Cis-2,6-dimethylpiperidinyl)ethyl]-5-bromoindole hydrochloride] gave a Ki of 1300 nM. Still for that read-out and setting: in the case of `C[C@@H]1CCC[C@H](C)N1CCc1c[nH]c2ccccc12` [Example 2, 3-[2-(Cis-2,6-dimethylpiperidinyl)ethyl]indole hydrochloride] it was 2500 nM.

Source of the values: US4870085A, “Tryptamine derivatives active on central nervous system” (Bayer Aktiengesellschaft, priority 1984, dated 1989).
